Measured values reported in ChEMBL document CHEMBL1201862, “PubChem BioAssay data set” (2004).
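In this assay, cells in 96-well plates receive the compound at five concentrations for 48 hours. Endpoints are linearly interpolated between the surrounding concentrations. GI50: concentration for 50% inhibition of growth.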 The source made the active and inactive calls. Cut-off read from the data, not from the text of the source: active = GI50 up to about 1.1 µM and inactive = higher.

Legend:
Assay in all cases: NCI anticancer screen, dose series, 48 h
[1] = tested on: 786-0
[2] = tested on: A549
[3] = tested on: EKVX
[4] = tested on: HCT-116
[5] = tested on: M14
[6] = tested on: MCF7
[7] = tested on: MDA-MB-435
[8] = tested on: MOLT-4
[9] = tested on: Malme-3M
[10] = tested on: NCI-H226
[11] = tested on: OVCAR-4
[12] = tested on: OVCAR-8
[13] = tested on: RPMI-8226
[14] = tested on: SK-MEL-2
[15] = tested on: SK-MEL-5
[16] = tested on: SNB-19
[17] = tested on: SR
[18] = tested on: TK-10
[19] = tested on: U-251
[20] = tested on: UACC-257

Row | Compound | GI50 [1] | GI50 [2] | GI50 [3] | GI50 [4] | GI50 [5] | GI50 [6] | GI50 [7] | GI50 [8] | GI50 [9] | GI50 [10] | GI50 [11] | GI50 [12] | GI50 [13] | GI50 [14] | GI50 [15] | GI50 [16] | GI50 [17] | GI50 [18] | GI50 [19] | GI50 [20]
1 | CC[C@@]1(OC(=O)CCC(=O)O)C(=O)OCc2c1cc1n(c2=O)Cc2cc3ccccc3nc2-1 | 0.0263 µM (active) | 0.0773 µM (active) | 1.36 µM (inactive) | 0.104 µM (active) | 0.0556 µM (active) | 0.0287 µM (active) | 0.435 µM (active) | < 0.01 µM (active) | 0.467 µM (active) | 0.193 µM (active) | 1.46 µM (inactive) | 0.137 µM (active) | 0.193 µM (active) | 1.85 µM (inactive) | 0.127 µM (active) | 0.0519 µM (active) | < 0.01 µM (active) | 3.65 µM (inactive) | 0.0303 µM (active) | 0.254 µM (active)
2 | COc1cccc(-c2c(-c3ccccc3)[nH]c(C)c2C(=O)ONC(=O)c2ccccc2)c1 | 4.44 µM (inactive) | 2.29 µM (inactive) | 6.78 µM (inactive) | 3.98 µM (inactive) | 5.7 µM (inactive) | 8.85 µM (inactive) | 3.34 µM (inactive) | 4.24 µM (inactive) | 13.4 µM (inactive) | 10.4 µM (inactive) | 5.05 µM (inactive) | 5.18 µM (inactive) | 6.28 µM (inactive) | 10.4 µM (inactive) | 9.93 µM (inactive) | 7.89 µM (inactive) | 2.07 µM (inactive) | 9.08 µM (inactive) | 3.14 µM (inactive) | 13.5 µM (inactive)
3 | Nc1nc(-c2cccnc2)cc(-c2cc(-c3cccnc3)nc(N)n2)n1 | > 100 µM (inactive) | > 100 µM (inactive) | > 100 µM (inactive) | > 100 µM (inactive) | > 100 µM (inactive) | > 100 µM (inactive) | 50.1 µM (inactive) | > 100 µM (inactive) | > 100 µM (inactive) | > 100 µM (inactive) | > 100 µM (inactive) | > 100 µM (inactive) | > 100 µM (inactive) | > 100 µM (inactive) | > 100 µM (inactive) | > 100 µM (inactive) | 55.8 µM (inactive) | > 100 µM (inactive) | > 100 µM (inactive) | > 100 µM (inactive)
4 | O=[N+]([O-])c1oc2ccc3ccccc3c2c1CCO | 5.27 µM (inactive) | 1.9 µM (inactive) | 0.447 µM (active) | 2.29 µM (inactive) | 1.94 µM (inactive) | 3.22 µM (inactive) | 1.53 µM (inactive) | 1.04 µM (active) | 1.78 µM (inactive) | 8.75 µM (inactive) | 3.18 µM (inactive) | 3.44 µM (inactive) | 3.96 µM (inactive) | 1.85 µM (inactive) | 0.546 µM (active) | 7.24 µM (inactive) | 0.114 µM (active) | 4.97 µM (inactive) | 9.44 µM (inactive) | 1.94 µM (inactive)
5 | CCN(CC)c1nc(N(C)C)c2ccccc2n1 | 27.9 µM (inactive) | 25.8 µM (inactive) | 10.3 µM (inactive) | 10.8 µM (inactive) | 15.6 µM (inactive) | 29.2 µM (inactive) | 28.9 µM (inactive) | 7.66 µM (inactive) | 41.1 µM (inactive) | 15.9 µM (inactive) | 54.1 µM (inactive) | 31 µM (inactive) | 13.2 µM (inactive) | 30.1 µM (inactive) | 15.1 µM (inactive) | 39.9 µM (inactive) | 7.78 µM (inactive) | 44.7 µM (inactive) | 28.4 µM (inactive) | 26.7 µM (inactive)
6 | O=C1NC(N2CCCCC2)=N/C1=C\c1cccs1 | > 100 µM (inactive) | > 100 µM (inactive) | > 100 µM (inactive) | > 100 µM (inactive) | > 100 µM (inactive) | > 100 µM (inactive) | > 100 µM (inactive) | > 100 µM (inactive) | > 100 µM (inactive) | > 100 µM (inactive) | > 100 µM (inactive) | > 100 µM (inactive) | > 100 µM (inactive) | > 100 µM (inactive) |  | > 100 µM (inactive) | > 100 µM (inactive) | > 100 µM (inactive) | > 100 µM (inactive) | > 100 µM (inactive)
7 | CCOC(=O)C1C2C1C1C(C(=O)OCC)C21 (stereo not given) | > 100 µM (inactive) | > 100 µM (inactive) | > 100 µM (inactive) | > 100 µM (inactive) | > 100 µM (inactive) | 51.3 µM (inactive) | > 100 µM (inactive) | > 100 µM (inactive) | > 100 µM (inactive) | > 100 µM (inactive) | > 100 µM (inactive) | > 100 µM (inactive) | 50.4 µM (inactive) | > 100 µM (inactive) | > 100 µM (inactive) | > 100 µM (inactive) | 52 µM (inactive) | > 100 µM (inactive) | > 100 µM (inactive) | 61 µM (inactive)
8 | CCN(/C=C1/C(=O)C(c2ccccc2)N(c2ccccc2)C1=O)CC (stereo not given) | > 10 µM (inactive) | > 10 µM (inactive) | > 10 µM (inactive) | > 10 µM (inactive) | > 10 µM (inactive) | > 10 µM (inactive) | > 10 µM (inactive) | > 10 µM (inactive) | > 10 µM (inactive) | > 10 µM (inactive) | > 10 µM (inactive) | > 10 µM (inactive) | > 10 µM (inactive) | > 10 µM (inactive) | > 10 µM (inactive) | > 10 µM (inactive) | > 10 µM (inactive) | > 10 µM (inactive) | > 10 µM (inactive) | > 10 µM (inactive)
9 | Nc1cc(C2CCCc3c2[nH]c2ccccc32)ccc1O (stereo not given) | 15.3 µM (inactive) | 24.6 µM (inactive) | 44 µM (inactive) | 20.3 µM (inactive) | 6.19 µM (inactive) | 24.8 µM (inactive) | 12.3 µM (inactive) | 4.79 µM (inactive) | 33 µM (inactive) | 55.3 µM (inactive) | 16.9 µM (inactive) | 24.3 µM (inactive) | 0.271 µM (active) | 31.9 µM (inactive) | 6 µM (inactive) | > 100 µM (inactive) | 4.48 µM (inactive) | > 100 µM (inactive) | 48.2 µM (inactive) | 42.4 µM (inactive)
10 | O=C1C(O)=C(C(CCc2ccccc2)C2=C(O)C(=O)c3ccccc3C2=O)C(=O)c2ccccc21 | > 100 µM (inactive) | 33 µM (inactive) | 61.1 µM (inactive) | 40 µM (inactive) | 11.5 µM (inactive) | 40.2 µM (inactive) | 13.9 µM (inactive) |  | 4.27 µM (inactive) | > 100 µM (inactive) | 67.9 µM (inactive) | 57.1 µM (inactive) | 16.1 µM (inactive) | 35.5 µM (inactive) | 4.08 µM (inactive) | > 100 µM (inactive) | 16.9 µM (inactive) | > 100 µM (inactive) | 45.6 µM (inactive) | 13.4 µM (inactive)
11 | C[C@]12CC[C@H]3[C@@H](CC=C4C[C@@H](O)CC[C@@]43C)[C@@H]1C/C(=C\c1cccnc1)[C@@H]2O | 19 µM (inactive) | 7.83 µM (inactive) | 3.97 µM (inactive) | 25 µM (inactive) | > 100 µM (inactive) | 6.75 µM (inactive) | > 100 µM (inactive) |  | > 100 µM (inactive) | 5.25 µM (inactive) | 4.68 µM (inactive) | 6.89 µM (inactive) | > 100 µM (inactive) | 30.8 µM (inactive) |  | 16 µM (inactive) | 1.57 µM (inactive) | 19.6 µM (inactive) | 6.27 µM (inactive) | 39.2 µM (inactive)
12 | Cc1ccc(S(=O)(=O)CC2(Br)CCc3ccccc3C2=O)cc1 (stereo not given) | 42.9 µM (inactive) | 45.3 µM (inactive) | 43.1 µM (inactive) | 47.1 µM (inactive) | 45.4 µM (inactive) | 24.5 µM (inactive) | 16.5 µM (inactive) | 2.86 µM (inactive) | 33.5 µM (inactive) | 41.8 µM (inactive) | 27.7 µM (inactive) | 27.4 µM (inactive) | 38.1 µM (inactive) | 21.4 µM (inactive) | 17.6 µM (inactive) | 41.9 µM (inactive) | 1.38 µM (inactive) | 33 µM (inactive) | 21.4 µM (inactive) | 22.3 µM (inactive)
13 | COc1cc(C2c3cc4c(cc3[C@@H](Nc3cccc(O)c3)C3COC(=O)[C@H]23)OCO4)cc(OC)c1O (stereo not given in full) | 2.07 µM (inactive) | 0.439 µM (active) | 5.16 µM (inactive) | 1.76 µM (inactive) | 2.79 µM (inactive) | 0.46 µM (active) | 2.95 µM (inactive) | 0.0359 µM (active) | 2.3 µM (inactive) | 0.771 µM (active) | 12.2 µM (inactive) | 2 µM (inactive) | 0.948 µM (active) | 5.2 µM (inactive) | 1.7 µM (inactive) | 3.7 µM (inactive) | 0.191 µM (active) | 4.51 µM (inactive) | 2.04 µM (inactive) | 2.05 µM (inactive)
14 | C[C@@H]1CCC2[C@@H](C)[C@@H](OCCO[C@H]3OC4O[C@@]5(C)CCC6[C@H](C)CCC([C@H]3C)[C@@]46OO5)OC3O[C@@]4(C)CCC1[C@]32OO4 (stereo not given in full) | 0.361 µM (active) | 0.0634 µM (active) | 1.48 µM (inactive) | 0.0251 µM (active) | 0.379 µM (active) | 0.0312 µM (active) | 0.239 µM (active) | 0.0483 µM (active) | 0.182 µM (active) | 0.289 µM (active) | 0.0361 µM (active) | 0.0982 µM (active) | < 0.01 µM (active) | 0.292 µM (active) | 0.301 µM (active) |  | 0.0345 µM (active) | 0.206 µM (active) | 0.0902 µM (active) | 0.39 µM (active)
